pIC50: −log10 of the molar value. Where two headings read alike, the source gives them in different places.
What was measured:
Format in all cases: biochemical
CDK6/CCND1 = CDK6/CCND1 (Homo sapiens, UniProt Q00534); assay: CDK6 homogeneous time-resolved fluorescence (HTRF) kinase assay; conditions: CDK6/CCND
In short: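 Enzyme pre-incubated 20 min at 23 °C with compound, then reacted 60 min at 23 °C with 1 mM ATP and 50 nM ULight-4E-BP1 (Thr37/46) peptide; 1 nM enzyme, 1% DMSO. EDTA-stopped, Eu-anti-phospho antibody TR-FRET read (665 nm or 665/615 ratio); 11-point half-log titration from 10 μM gave IC50.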

CDK4/CCND3 = CDK4/CCND3 (Homo sapiens, UniProt P11802); assay: CDK4 homogeneous time-resolved fluorescence (HTRF) kinase assay; conditions: CDK4/CCND
Chain of CDK4/CCND3 (P11802 whole entry): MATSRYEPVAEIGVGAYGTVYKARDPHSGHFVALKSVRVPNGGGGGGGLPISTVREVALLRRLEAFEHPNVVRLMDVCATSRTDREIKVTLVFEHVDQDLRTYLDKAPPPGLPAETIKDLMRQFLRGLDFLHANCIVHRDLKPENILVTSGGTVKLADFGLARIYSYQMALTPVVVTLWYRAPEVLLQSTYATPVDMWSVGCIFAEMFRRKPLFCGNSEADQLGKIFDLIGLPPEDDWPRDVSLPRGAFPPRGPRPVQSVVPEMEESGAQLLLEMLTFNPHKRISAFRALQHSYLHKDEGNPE
Chain of CDK4/CCND3 (P30281 whole entry partner): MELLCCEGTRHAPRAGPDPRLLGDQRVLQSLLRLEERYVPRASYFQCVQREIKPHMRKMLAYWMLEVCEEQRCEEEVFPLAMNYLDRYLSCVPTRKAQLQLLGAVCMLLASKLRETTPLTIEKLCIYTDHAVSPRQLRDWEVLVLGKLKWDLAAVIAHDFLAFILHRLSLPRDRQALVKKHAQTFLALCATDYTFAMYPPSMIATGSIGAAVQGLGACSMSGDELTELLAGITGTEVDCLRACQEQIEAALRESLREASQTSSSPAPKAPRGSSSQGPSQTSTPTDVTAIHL
In short: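 Steps: compound plus 1.5 nM CDK4/CCND3, 20 min, 23 °C; add 1 mM ATP and 50 nM ULight-4E-BP1 (Thr37/46) peptide, 60 min; stop with 10 mM EDTA; add 2 nM Eu anti-phospho antibody, 60 min; read 665 nm. IC50 from 11-point half-log series starting 10 μM.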

CDK2/CCNE1 = CDK2/CCNE1 (Homo sapiens, UniProt P24941); assay: CDK2 homogeneous time-resolved fluorescence (HTRF) kinase assay; conditions: CDK2/CCNE
In short: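 Compounds were titrated 11-point, half-log from typically 10 μM against 3 nM CDK2/cyclin E1 at 1 mM ATP, with a 20 min enzyme preincubation. Phosphorylation of 50 nM ULight-4E-BP1 peptide over 60 min at 23 °C was detected by europium anti-phospho antibody TR-FRET.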

CDK1/CCNB1 = CDK1/CCNB1 (Homo sapiens, UniProt P06493); assay: CDK1 homogeneous time-resolved fluorescence (HTRF) kinase assay; conditions: CDK1/CCNB
Chain of CDK1/CCNB1 (P06493 whole entry): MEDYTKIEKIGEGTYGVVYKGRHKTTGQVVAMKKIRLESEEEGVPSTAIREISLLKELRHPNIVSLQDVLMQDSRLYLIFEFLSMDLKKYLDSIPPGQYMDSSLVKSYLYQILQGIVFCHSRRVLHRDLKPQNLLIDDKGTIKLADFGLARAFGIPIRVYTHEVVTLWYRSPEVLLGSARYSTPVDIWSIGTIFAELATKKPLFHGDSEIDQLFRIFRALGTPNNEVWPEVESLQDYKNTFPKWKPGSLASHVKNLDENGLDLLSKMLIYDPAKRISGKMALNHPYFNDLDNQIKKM
Chain of CDK1/CCNB1 (P14635 whole entry partner): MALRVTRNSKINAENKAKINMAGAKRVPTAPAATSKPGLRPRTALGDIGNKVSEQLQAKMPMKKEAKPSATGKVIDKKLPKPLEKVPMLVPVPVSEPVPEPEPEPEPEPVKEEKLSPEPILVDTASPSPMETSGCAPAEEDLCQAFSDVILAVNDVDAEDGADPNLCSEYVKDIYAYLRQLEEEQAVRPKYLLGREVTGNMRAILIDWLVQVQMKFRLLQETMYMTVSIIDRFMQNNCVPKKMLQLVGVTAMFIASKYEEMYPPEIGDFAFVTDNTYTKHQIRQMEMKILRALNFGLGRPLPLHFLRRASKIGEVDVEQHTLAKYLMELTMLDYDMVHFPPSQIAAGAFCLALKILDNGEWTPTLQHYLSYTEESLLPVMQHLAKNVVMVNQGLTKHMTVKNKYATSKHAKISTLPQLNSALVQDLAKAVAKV
In short: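 Compounds, titrated 11 points in half-log steps typically from 10 μM, were incubated with enzyme for 20 min before ATP (1 mM) and ULight-labelled eIF4E-binding protein 1 peptide (50 nM) started a 60-min reaction at 23 °C. Phosphopeptide was detected by europium-antibody TR-FRET and IC50 values were derived.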

[1] = x = IC50 25-250 nM, read-out: CDK6/CCND IC50 (25-250 nM)
[2] = x = IC50 25-250 nM, read-out: CDK4/CCND IC50 (25-250 nM)
[3] = x = IC50 <25 nM, read-out: CDK2/CCNE IC50 (<25 nM)
[4] = x = IC50 >250 nM, read-out: CDK1/CCNB IC50 (>250 nM column)
[5] = x = IC50 >250 nM, read-out: CDK6/CCND IC50 (>250 nM column)
[6] = x = IC50 >250 nM, read-out: CDK4/CCND IC50 (>250 nM column)
[7] = x = IC50 25-250 nM, read-out: CDK2/CCNE IC50 (25-250 nM)

Chain of CDK6/CCND1 (Q00534 whole entry): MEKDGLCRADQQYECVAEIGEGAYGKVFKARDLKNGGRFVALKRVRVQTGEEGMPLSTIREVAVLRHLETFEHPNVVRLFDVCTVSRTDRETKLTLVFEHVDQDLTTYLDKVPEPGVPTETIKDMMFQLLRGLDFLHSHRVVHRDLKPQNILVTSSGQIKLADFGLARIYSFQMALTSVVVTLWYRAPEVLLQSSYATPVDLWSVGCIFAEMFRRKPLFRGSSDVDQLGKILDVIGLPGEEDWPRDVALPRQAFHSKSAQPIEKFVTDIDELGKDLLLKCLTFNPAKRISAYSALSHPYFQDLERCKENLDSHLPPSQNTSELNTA
Chain of CDK6/CCND1 (P24385 whole entry partner): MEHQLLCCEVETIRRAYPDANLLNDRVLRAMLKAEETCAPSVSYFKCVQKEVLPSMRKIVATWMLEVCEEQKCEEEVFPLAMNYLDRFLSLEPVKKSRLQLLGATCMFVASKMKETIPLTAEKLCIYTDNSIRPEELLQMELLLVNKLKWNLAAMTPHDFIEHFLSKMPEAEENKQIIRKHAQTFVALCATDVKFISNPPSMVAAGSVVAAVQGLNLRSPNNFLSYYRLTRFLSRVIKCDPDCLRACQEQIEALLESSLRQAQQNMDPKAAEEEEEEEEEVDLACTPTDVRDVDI

Structure (SMILES)	pIC50 (CDK6/CCND1; [1])	pIC50 (CDK4/CCND3; [2])	pIC50 (CDK2/CCNE1; [3])	pIC50 (CDK1/CCNB1; [4])	pIC50 (CDK6/CCND1; [5])	pIC50 (CDK4/CCND3; [6])	pIC50 (CDK2/CCNE1; [7])	pIC50 (CDK1/CCNB1; x = IC50 25-250 nM, read-out: CDK1/CCNB IC50 (25-250 nM))
Cc1c(-c2nccc3cnc(Nc4ccc(S(C)(=O)=O)c(O)c4)cc23)ccc2c1cnn2CCO [Ex 616, 5-((5-(1-(2-hydroxyethyl)-4-methyl-1H-indazol-5-yl)-2,6-naphthyridin-3-yl)amino)-2-(methylsulfonyl)phenol]	6.60 to 7.60	6.60 to 7.60	> 7.60	< 6.60				
COc1cc(Nc2cc3c(-c4ccc5c(cnn5CCO)c4C)nccc3cn2)ccc1S(C)(=O)=O [Ex 617, 2-(5-(7-((3-methoxy-4-(methylsulfonyl)phenyl)amino)-2,6-naphthyridin-1-yl)-4-methyl-1H-indazol-1-yl)ethan-1-ol]				< 6.60	< 6.60	< 6.60	6.60 to 7.60	
CS(=O)(=O)c1ccc(Nc2cc3c(C#Cc4ccc(=O)[nH]n4)nccc3cn2)cc1 [Ex 618, 6-((7-((4-(methylsulfonyl)phenyl)amino)-2,6-naphthyridin-1-yl)ethynyl)pyridazin-3(2H)-one]			> 7.60	< 6.60	< 6.60	< 6.60		
CS(=O)(=O)c1ccc(Nc2cc3c(C#Cc4ccc(CC#N)cc4)nccc3cn2)cc1 [Ex 620, 2-(4-((7-((4-(methylsulfonyl)phenyl)amino)-2,6-naphthyridin-1-yl)ethynyl)phenyl)acetonitrile]				< 6.60	< 6.60	< 6.60	6.60 to 7.60	
CS(=O)(=O)c1ccc(Nc2cc3c(C#Cc4cccc5cn[nH]c45)nccc3cn2)cc1 [Ex 621, 5-((1H-indazol-7-yl)ethynyl)-N-(4-(methylsulfonyl)phenyl)-2,6-naphthyridin-3-amine]				< 6.60	< 6.60	< 6.60	6.60 to 7.60	
CS(=O)(=O)c1ccc(Nc2cc3c(C#Cc4cnc(N)cn4)nccc3cn2)cc1 [Ex 622, 5-((5-aminopyrazin-2-yl)ethynyl)-N-(4-(methylsulfonyl)phenyl)-2,6-naphthyridin-3-amine]				< 6.60	< 6.60	< 6.60	6.60 to 7.60	
CS(=O)(=O)c1ccc(Nc2cc3c(C#Cc4cccnc4)nccc3cn2)cc1 [Ex 623, N-(4-(methylsulfonyl)phenyl)-5-(pyridin-3-ylethynyl)-2,6-naphthyridin-3-amine]				< 6.60	< 6.60	< 6.60	6.60 to 7.60	
CN1Cc2cc(-c3nccc4cnc(Nc5ccc(S(C)(=O)=O)cc5)cc34)ccc2C1=O [Ex 624, 2-methyl-5-(7-((4-(methylsulfonyl)phenyl)amino)-2,6-naphthyridin-1-yl)isoindolin-1-one]				< 6.60	< 6.60	< 6.60	6.60 to 7.60	
CS(=O)(=O)c1ccc(Nc2cc3c(C#Cc4ccc(O)cn4)nccc3cn2)cc1 [Ex 627, 6-((7-((4-(methylsulfonyl)phenyl)amino)-2,6-naphthyridin-1-yl)ethynyl)pyridin-3-ol]				< 6.60	< 6.60	< 6.60	6.60 to 7.60	
CC(=O)Nc1ccc(C#Cc2nccc3cnc(Nc4ccc(S(C)(=O)=O)cc4)cc23)cc1 [Ex 631, N-(4-((7-((4-(methylsulfonyl)phenyl)amino)-2,6-naphthyridin-1-yl)ethynyl)phenyl)acetamide]			> 7.60	< 6.60	< 6.60	< 6.60		
CS(=O)(=O)c1ccc(Nc2cc3c(C#Cc4cnc(N)nc4)nccc3cn2)cc1 [Ex 633, 5-((2-aminopyrimidin-5-yl)ethynyl)-N-(4-(methylsulfonyl)phenyl)-2,6-naphthyridin-3-amine]				< 6.60	< 6.60	< 6.60	6.60 to 7.60	
CNC(=O)c1ccc(C#Cc2nccc3cnc(Nc4ccc(S(C)(=O)=O)cc4)cc23)cc1 [Ex 634, N-methyl-4-((7-((4-(methylsulfonyl)phenyl)amino)-2,6-naphthyridin-1-yl)ethynyl)benzamide]			> 7.60	< 6.60	< 6.60	< 6.60		
CS(=O)(=O)c1ccc(Nc2cc3c(C#Cc4cnn(C5CC5)c4)nccc3cn2)cc1 [Ex 635, 5-((1-cyclopropyl-1H-pyrazol-4-yl)ethynyl)-N-(4-(methylsulfonyl)phenyl)-2,6-naphthyridin-3-amine]				< 6.60	< 6.60	< 6.60	6.60 to 7.60	
CS(=O)(=O)c1ccc(Nc2cc3c(C#Cc4ccc(OC(F)F)cc4)nccc3cn2)cc1 [Ex 636, 5-((4-(difluoromethoxy)phenyl)ethynyl)-N-(4-(methylsulfonyl)phenyl)-2,6-naphthyridin-3-amine]				< 6.60	< 6.60	< 6.60	6.60 to 7.60	
Cn1nccc1C#Cc1nccc2cnc(Nc3ccc(S(C)(=O)=O)cc3)cc12 [Ex 637, 5-((1-methyl-1H-pyrazol-5-yl)ethynyl)-N-(4-(methylsulfonyl)phenyl)-2,6-naphthyridin-3-amine]			> 7.60	< 6.60	< 6.60	< 6.60		
CS(=O)(=O)c1ccc(Nc2cc3c(C#Cc4ccc5cn[nH]c5c4)nccc3cn2)cc1 [Ex 638, 5-((1H-indazol-6-yl)ethynyl)-N-(4-(methylsulfonyl)phenyl)-2,6-naphthyridin-3-amine]		6.60 to 7.60	> 7.60	< 6.60	< 6.60			
CS(=O)(=O)c1ccc(Nc2cc3c(-c4ccc5nn(CCO)cc5c4)nccc3cn2)cc1 [Ex 639, 2-(5-(7-((4-(methylsulfonyl)phenyl)amino)-2,6-naphthyridin-1-yl)-2H-indazol-2-yl)ethan-1-ol]				< 6.60	< 6.60	< 6.60	6.60 to 7.60	
CNC(=O)Cn1ncc2c(C)c(-c3nccc4cnc(Nc5ccc(S(C)(=O)=O)cc5)cc34)ccc21 [Ex 640, N-methyl-2-(4-methyl-5-(7-((4-(methylsulfonyl)phenyl)amino)-2,6-naphthyridin-1-yl)-1H-indazol-1-yl)acetamide]	6.60 to 7.60	6.60 to 7.60	> 7.60					6.60 to 7.60
Cc1c(C#N)ccc(C#Cc2nccc3cnc(Nc4ccc(S(C)(=O)=O)cc4)cc23)c1C [Ex 643, 2,3-dimethyl-4-((7-((4-(methylsulfonyl)phenyl)amino)-2,6-naphthyridin-1-yl)ethynyl)benzonitrile]				< 6.60	< 6.60	< 6.60	6.60 to 7.60	
CN1Cc2cc(-c3nccc4cnc(Nc5ccc(S(C)(=O)=O)cc5)cc34)ccc2CC1=O [Ex 644, 2-methyl-7-(7-((4-(methylsulfonyl)phenyl)amino)-2,6-naphthyridin-1-yl)-1,4-dihydroisoquinolin-3(2H)-one]				< 6.60	< 6.60	< 6.60	6.60 to 7.60	
CS(=O)(=O)c1ccc(Nc2cc3c(C#Cc4ccc5[nH]ncc5c4)nccc3cn2)cc1 [Ex 645, 5-((1H-indazol-5-yl)ethynyl)-N-(4-(methylsulfonyl)phenyl)-2,6-naphthyridin-3-amine]				< 6.60	< 6.60	< 6.60	6.60 to 7.60	
COc1ccc(C#Cc2nccc3cnc(Nc4ccc(S(C)(=O)=O)cc4)cc23)cn1 [Ex 646, 5-((6-methoxypyridin-3-yl)ethynyl)-N-(4-(methylsulfonyl)phenyl)-2,6-naphthyridin-3-amine]				< 6.60	< 6.60	< 6.60	6.60 to 7.60	

Source: US20260325533A1, “CDK INHIBITOR COMPOUNDS” (ALEKSIA THERAPEUTICS, INC., priority 2023, published 2026)
